Experimental data published in BindingDB's records for patent US12496348 (Dana-Farber Cancer Institute, 2025).

Biological target: CREB-binding protein (Homo sapiens, UniProt Q92793)
Test: CBP (Bromodomain) AlphaScreen Assay
Protocol: Assays were performed with minimal modifications from the manufacturer's protocol (PerkinElmer , USA). All reagents were diluted in 50 mM 4-(2-hydroxyethyl)-1-piperazineethanesulfonic acid (HEPES), 150 mM NaCl, 0.1% w/v bovine serum albumin (BSA), 0.01% w/v Tween 20, pH 7.5 and allowed to equilibrate to room temperature prior to addition to plates. After addition of AlphaScreen acceptor beads to master solutions, all subsequent steps were performed under low light conditions. A 2× solution of components with final concentrations of CBP bromodomain at 40 nM, Ni-coated Acceptor Bead at 10 μg/ml, and 7.2 nM biotinylated-Int-2 was added in 10 μL to 384-well plates (AlphaPlate-384, PerkinElmer , USA). Plates were spun down at 150×g, 100 nL of compound in dimethyl sulfoxide (DMSO) from stock plates were added by pin transfer using a Janus Workstation (PerkinElmer , USA). The streptavidin-coated donor beads ([…] final) were added as with previous the solution in a 2×10 μL volume. Following this addition, plates were sealed with foil to prevent light exposure and evaporation. The plates were spun down again at 150×g. Plates were incubated at room temperature for 1 hour and then read on a 2104 EnVision Multilabel Plate Reader (PerkinElmer , USA) using the manufacturer's protocol.

CREB-binding protein, sequence (Q92793 whole entry): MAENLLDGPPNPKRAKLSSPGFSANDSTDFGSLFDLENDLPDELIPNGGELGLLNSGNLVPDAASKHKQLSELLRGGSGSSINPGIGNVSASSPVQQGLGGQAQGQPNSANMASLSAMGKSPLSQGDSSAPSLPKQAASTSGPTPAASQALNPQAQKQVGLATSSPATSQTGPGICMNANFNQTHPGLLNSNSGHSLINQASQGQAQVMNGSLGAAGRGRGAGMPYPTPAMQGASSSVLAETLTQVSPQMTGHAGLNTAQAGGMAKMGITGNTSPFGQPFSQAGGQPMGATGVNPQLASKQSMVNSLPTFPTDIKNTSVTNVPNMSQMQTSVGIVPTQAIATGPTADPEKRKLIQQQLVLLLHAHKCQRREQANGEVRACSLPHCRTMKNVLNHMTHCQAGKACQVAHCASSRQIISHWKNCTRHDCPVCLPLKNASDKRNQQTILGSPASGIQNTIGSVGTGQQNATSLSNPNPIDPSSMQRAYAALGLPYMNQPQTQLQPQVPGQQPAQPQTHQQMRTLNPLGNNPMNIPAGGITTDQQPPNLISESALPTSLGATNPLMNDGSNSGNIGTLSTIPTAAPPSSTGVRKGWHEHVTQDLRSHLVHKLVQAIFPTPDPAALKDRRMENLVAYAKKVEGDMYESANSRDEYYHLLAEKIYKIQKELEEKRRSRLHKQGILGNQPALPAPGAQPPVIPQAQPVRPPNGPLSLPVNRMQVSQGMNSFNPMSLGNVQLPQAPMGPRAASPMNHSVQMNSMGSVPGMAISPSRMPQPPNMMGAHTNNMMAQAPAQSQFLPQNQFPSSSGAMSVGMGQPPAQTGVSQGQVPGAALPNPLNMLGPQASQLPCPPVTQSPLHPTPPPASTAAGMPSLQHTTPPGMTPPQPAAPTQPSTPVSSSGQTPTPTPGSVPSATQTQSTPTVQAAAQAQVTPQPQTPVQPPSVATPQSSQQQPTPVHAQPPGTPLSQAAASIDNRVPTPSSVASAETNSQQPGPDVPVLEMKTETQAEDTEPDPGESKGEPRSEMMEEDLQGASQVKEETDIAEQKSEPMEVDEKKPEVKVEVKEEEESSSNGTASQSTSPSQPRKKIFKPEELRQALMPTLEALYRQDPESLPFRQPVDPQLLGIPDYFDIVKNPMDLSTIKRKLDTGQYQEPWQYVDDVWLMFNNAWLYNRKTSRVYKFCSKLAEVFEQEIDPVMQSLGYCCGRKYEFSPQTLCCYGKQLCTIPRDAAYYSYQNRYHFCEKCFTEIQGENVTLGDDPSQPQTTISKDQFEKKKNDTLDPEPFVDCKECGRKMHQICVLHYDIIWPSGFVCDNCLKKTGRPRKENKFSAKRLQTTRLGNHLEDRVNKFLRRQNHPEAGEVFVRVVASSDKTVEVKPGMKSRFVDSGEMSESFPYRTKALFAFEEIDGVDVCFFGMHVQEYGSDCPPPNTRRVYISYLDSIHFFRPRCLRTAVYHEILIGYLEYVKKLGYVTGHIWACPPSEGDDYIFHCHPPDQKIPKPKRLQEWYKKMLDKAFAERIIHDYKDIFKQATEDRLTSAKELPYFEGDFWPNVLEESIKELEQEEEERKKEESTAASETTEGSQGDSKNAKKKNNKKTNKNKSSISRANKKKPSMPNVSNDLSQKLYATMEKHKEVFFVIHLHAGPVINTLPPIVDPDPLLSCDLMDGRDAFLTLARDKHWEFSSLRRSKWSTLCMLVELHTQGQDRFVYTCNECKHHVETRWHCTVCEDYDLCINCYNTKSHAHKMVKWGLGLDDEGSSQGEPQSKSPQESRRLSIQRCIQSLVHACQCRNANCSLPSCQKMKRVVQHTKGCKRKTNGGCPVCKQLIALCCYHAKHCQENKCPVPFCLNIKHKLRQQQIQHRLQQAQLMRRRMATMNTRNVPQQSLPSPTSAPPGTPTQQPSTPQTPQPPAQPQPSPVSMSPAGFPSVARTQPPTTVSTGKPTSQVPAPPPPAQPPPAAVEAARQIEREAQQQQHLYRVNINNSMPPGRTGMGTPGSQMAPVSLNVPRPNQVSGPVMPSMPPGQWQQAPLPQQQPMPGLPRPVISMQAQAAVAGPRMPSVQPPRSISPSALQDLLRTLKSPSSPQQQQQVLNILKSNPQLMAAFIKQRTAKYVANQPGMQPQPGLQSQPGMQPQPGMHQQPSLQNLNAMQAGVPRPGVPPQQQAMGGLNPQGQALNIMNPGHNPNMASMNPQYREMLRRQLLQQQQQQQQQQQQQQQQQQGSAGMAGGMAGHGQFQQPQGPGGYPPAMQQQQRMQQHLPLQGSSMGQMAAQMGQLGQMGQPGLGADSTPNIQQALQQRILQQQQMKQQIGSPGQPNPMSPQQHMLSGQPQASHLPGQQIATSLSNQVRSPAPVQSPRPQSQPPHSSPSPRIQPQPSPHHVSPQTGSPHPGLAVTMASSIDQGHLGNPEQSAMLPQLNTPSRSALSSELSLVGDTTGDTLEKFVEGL

An IC50 of 18.9 µM was found for `Cc1noc(C)c1-c1ccc2nc(-c3ccc(N4CCN(C(=O)CCCCCCCCCCCNc5ccc6c(c5)C(=O)N(C5CCC(=O)NC5=O)C6=O)CC4)cc3)c(NC3CCCCC3)n2c1` (stereo unspecified) [US12496348, Compound 1] in this work.
